Measurements: ChEMBL document CHEMBL3046252, “Synthesis and herbicidal potential of substituted aurones” (2012)

What was measured:
Assay type in all cases: functional
Echinochloa crus-galli [1] = assay: Herbicidal activity against Echinochloa crus-galli (barnyard grass) plants assessed as inhibition of seedling growth at 1000 ug/ml after 65 hr by barnyard cup test; conditions: read-out: GI
Echinochloa crus-galli [2] = assay: Pre-emergence herbicidal activity against Echinochloa crus-galli (barnyard grass) assessed as inhibition of plant fresh weight growth at 1500 g/ha applied to soil through spraying under greenhouse conditions; conditions: read-out: GI
Digitaria sanguinalis [3] = assay: Pre-emergence herbicidal activity against Digitaria sanguinalis (hairy crabgrass) assessed as inhibition of plant fresh weight growth at 1500 g/ha applied to soil through spraying under greenhouse conditions; conditions: read-out: GI
[4] = test system: Brassica rapa subsp. oleifera; assay: Herbicidal activity against Brassica rapa subsp. oleifera assessed as inhibition of root growth at 100 ug/ml after 65 hr by rape cup test; conditions: read-out: GI
Echinochloa crus-galli [5] = assay: Post-emergence herbicidal activity against Echinochloa crus-galli (barnyard grass) seedlings assessed as inhibition of plant fresh weight growth at 1500 g/ha applied through spraying under greenhouse conditions; conditions: read-out: GI
Paraixeris denticulata [6] = assay: Herbicidal activity against Paraixeris denticulata assessed as germination rate at 1000 ug/ml measured on first day post dose (reference value: 30.8 +/- 1.2%)
[7] = test system: Brassica rapa subsp. oleifera; assay: Post-emergence herbicidal activity against Brassica rapa subsp. oleifera seedlings assessed as inhibition of plant fresh weight growth at 1500 g/ha applied through spraying under greenhouse conditions; conditions: read-out: GI
Amaranthus retroflexus [8] = assay: Post-emergence herbicidal activity against Amaranthus retroflexus seedlings assessed as inhibition of plant fresh weight growth at 1500 g/ha applied through spraying under greenhouse conditions; conditions: read-out: GI
Paraixeris denticulata [9] = assay: Herbicidal activity against Paraixeris denticulata assessed as germination rate at 1000 ug/ml measured on fourth day post dose (reference value: 100%)
Echinochloa crus-galli [10] = assay: Herbicidal activity against Echinochloa crus-galli (barnyard grass) plants assessed as germination rate at 1000 ug/ml measured on second day post dose (reference value: 100%)
[11] = test system: Brassica rapa subsp. oleifera; assay: Pre-emergence herbicidal activity against Brassica rapa subsp. oleifera assessed as inhibition of plant fresh weight growth at 1500 g/ha applied to soil through spraying under greenhouse conditions; conditions: read-out: GI
Paraixeris denticulata [12] = assay: Herbicidal activity against Paraixeris denticulata assessed as germination rate at 1000 ug/ml measured on second day post dose (reference value: 76.7 +/- 0.3%)
Paraixeris denticulata [13] = assay: Herbicidal activity against Paraixeris denticulata assessed as germination rate at 1000 ug/ml measured on third day post dose (reference value: 97.4 +/- 0.6%)
Echinochloa crus-galli [14] = assay: Herbicidal activity against Echinochloa crus-galli (barnyard grass) plants assessed as germination rate at 1000 ug/ml measured on first day post dose (reference value: 49.1 +/- 1.6%)
Digitaria sanguinalis [15] = assay: Post-emergence herbicidal activity against Digitaria sanguinalis (hairy crabgrass) seedlings assessed as inhibition of plant fresh weight growth at 1500 g/ha applied through spraying under greenhouse conditions; conditions: read-out: GI
[16] = test system: Brassica rapa subsp. oleifera; assay: Herbicidal activity against Brassica rapa subsp. oleifera assessed as inhibition of root growth at 1000 ug/ml after 65 hr by rape cup test; conditions: read-out: GI
Echinochloa crus-galli [17] = assay: Herbicidal activity against Echinochloa crus-galli (barnyard grass) plants assessed as inhibition of seedling growth at 100 ug/ml after 65 hr by barnyard cup test; conditions: read-out: GI
Amaranthus retroflexus [18] = assay: Pre-emergence herbicidal activity against Amaranthus retroflexusassessed as inhibition of plant fresh weight growth at 1500 g/ha applied to soil through spraying under greenhouse conditions; conditions: read-out: GI
Digitaria sanguinalis [19] = assay: Herbicidal activity against Digitaria sanguinalis (hairy crabgrass) assessed as germination rate at 1000 ug/ml measured on second day post dose (reference value: 100%)
Digitaria sanguinalis [20] = assay: Herbicidal activity against Digitaria sanguinalis (hairy crabgrass) assessed as germination rate at 1000 ug/ml measured on first day post dose (reference value: 0%)
Digitaria sanguinalis [21] = assay: Herbicidal activity against Digitaria sanguinalis (hairy crabgrass) assessed as germination rate at 1000 ug/ml measured on third day post dose (reference value: 100%)
[22] = test system: Brassica rapa subsp. oleifera; assay: Herbicidal activity against Brassica rapa subsp. oleifera assessed as inhibition of root growth at 10 ug/ml after 65 hr by rape cup test; conditions: read-out: GI
Digitaria sanguinalis [23] = assay: Pre-emergence herbicidal activity against Digitaria sanguinalis (hairy crabgrass) assessed as inhibition of plant fresh weight growth at 150 g/ha applied to soil through spraying under greenhouse conditions; conditions: read-out: GI
[24] = test system: Brassica rapa subsp. oleifera; assay: Pre-emergence herbicidal activity against Brassica rapa subsp. oleifera assessed as inhibition of plant fresh weight growth at 150 g/ha applied to soil through spraying under greenhouse conditions; conditions: read-out: GI
[25] = test system: Brassica rapa subsp. oleifera; assay: Post-emergence herbicidal activity against Brassica rapa subsp. oleifera seedlings assessed as inhibition of plant fresh weight growth at 150 g/ha applied through spraying under greenhouse conditions; conditions: read-out: GI
Amaranthus retroflexus [26] = assay: Pre-emergence herbicidal activity against Amaranthus retroflexus assessed as inhibition of plant fresh weight growth at 150 g/ha applied to soil through spraying under greenhouse conditions; conditions: read-out: GI
Echinochloa crus-galli [27] = assay: Pre-emergence herbicidal activity against Echinochloa crus-galli (barnyard grass) assessed as inhibition of plant fresh weight growth at 150 g/ha applied to soil through spraying under greenhouse conditions; conditions: read-out: GI
Digitaria sanguinalis [28] = assay: Post-emergence herbicidal activity against Digitaria sanguinalis (hairy crabgrass) seedlings assessed as inhibition of plant fresh weight growth at 150 g/ha applied through spraying under greenhouse conditions; conditions: read-out: GI
Echinochloa crus-galli [29] = assay: Post-emergence herbicidal activity against Echinochloa crus-galli (barnyard grass) seedlings assessed as inhibition of plant fresh weight growth at 150 g/ha applied through spraying under greenhouse conditions; conditions: read-out: GI
Amaranthus retroflexus [30] = assay: Post-emergence herbicidal activity against Amaranthus retroflexus seedlings assessed as inhibition of plant fresh weight growth at 150 g/ha applied through spraying under greenhouse conditions; conditions: read-out: GI

SMILES	inhibition of growth at 1000 µg/mL (Echinochloa crus-galli [1])	inhibition of growth at 1500 g/ha (Echinochloa crus-galli [2])	inhibition of growth at 1500 g/ha (Digitaria sanguinalis [3])	inhibition of growth at 100 µg/mL [4]	inhibition of growth at 1500 g/ha (Echinochloa crus-galli [5])	Activity (Paraixeris denticulata [6])	inhibition of growth at 1500 g/ha [7]	inhibition of growth at 1500 g/ha (Amaranthus retroflexus [8])	Activity (Paraixeris denticulata [9])	Activity (Echinochloa crus-galli [10])	inhibition of growth at 1500 g/ha [11]	Activity (Paraixeris denticulata [12])	Activity (Paraixeris denticulata [13])	Activity (Echinochloa crus-galli [14])	inhibition of growth at 1500 g/ha (Digitaria sanguinalis [15])	inhibition of growth at 1000 µg/mL [16]	inhibition of growth at 100 µg/mL (Echinochloa crus-galli [17])	Activity (Digitaria sanguinalis [19])	Activity (Digitaria sanguinalis [20])	Activity (Digitaria sanguinalis [21])	also measured
COc1cc(OC)c2c(c1)O/C(=C\c1ccccc1F)C2=O	45%	15%	0%	74.7%	6.5%	17.8%	0%	40.1%	100%	100%	0%	58.9%	76.7%	11.4%	0%	86.8%	15%				inhibition of growth at 1500 g/ha (Amaranthus retroflexus [18]): 10%
COc1cc(/C=C2\Oc3cc(O)cc(O)c3C2=O)ccc1O	23.3%			63.3%		14.3%			100%	100%		82.4%	94.9%	16.9%		98.4%	9.5%	35.1%	0%	100%	
COc1cc(OC)c2c(c1)O/C(=C\c1ccco1)C2=O	42.5%			75.9%						100%				23.7%		94.9%	7.8%	35%	0%	100%	inhibition of growth at 10 µg/mL [22]: 31.6%
CCOc1cc(OCC)c2c(c1)O/C(=C\c1ccc(OCc3ccccc3)c(OC)c1)C2=O	26.7%	0%	10%	79.2%	7.9%		0%	0%			0%				5%	72.6%	15%				inhibition of growth at 1500 g/ha (Amaranthus retroflexus [18]): 5%
COc1cc(/C=C2\Oc3cc(OC)c(C)c(OC)c3C2=O)ccc1OCc1ccccc1	45.1%			71.7%		12.1%			100%	100%		65.5%	91.7%	16.3%		99.5%	19%	38.9%	0%	100%	inhibition of growth at 10 µg/mL [22]: 42.6%
COc1cc(OC)c2c(c1)O/C(=C\c1ccccc1)C2=O	20%	10%	0%	88.5%	0%	2.5%	15%	42.2%	100%	100%	0%	75.7%	95%	18.8%	0%	91.4%	0%	22.5%	0%	100%	inhibition of growth at 10 µg/mL [22]: 81.3%; inhibition of growth at 1500 g/ha (Amaranthus retroflexus [18]): 0%
COc1cc(OC)c2c(c1)O/C(=C\c1ccc(OC)c(OC)c1)C2=O [4,6,3',4'-TETRAMETHOXYAURONE]	61.3%			5.3%		20%			100%	100%		69.6%	100%	13%		77.9%	0.9%	41.4%	0%	100%	
CS(=O)(=O)c1ccc(C(=O)C2C(=O)CCCC2=O)c([N+](=O)[O-])c1 [MESOTRIONE]	96.1%			89.7%												93.4%	90.5%				inhibition of growth at 150 g/ha (Digitaria sanguinalis [23]): 100%; inhibition of growth at 150 g/ha [24]: 97.8%; inhibition of growth at 10 µg/mL [22]: 80.3%; inhibition of growth at 150 g/ha [25]: 100%; inhibition of growth at 150 g/ha (Amaranthus retroflexus [26]): 97.9%; inhibition of growth at 150 g/ha (Echinochloa crus-galli [27]): 92.5%; inhibition of growth at 150 g/ha (Digitaria sanguinalis [28]): 100%; inhibition of growth at 150 g/ha (Echinochloa crus-galli [29]): 86.7%; inhibition of growth at 150 g/ha (Amaranthus retroflexus [30]): 100%
CCc1cccc(C)c1N(C(=O)CCl)C(C)COC (stereo not drawn) [METOLACHOR]		100%	100%		54%		100%	66.4%			88.3%				46.3%						inhibition of growth at 1500 g/ha (Amaranthus retroflexus [18]): 100%
